From patent US20230210795A1, “3-HYDROXYBUTYRIC-ACID-CONTAINING OIL AND FAT COMPOSITION” (OSAKA GAS CO., LTD., priority 2020, published 2023)

Assay: Deliquescence test: 1 g of composition left uncovered in a petri dish at 25° C. for 1 week, appearance and weight change evaluated
Assay type: physicochemical
Parameters: key: High fluidity and silky smoothness.; Δ: Slightly moist but highly fluid powder.; x: Agglomeration or deliquescence occurred
Conditions: for Appearance after 1 week / Appearance after 1 day: left uncovered at 25° C.
Experimental: R-3HB crystals or R-3HB salts (3HB-Na: sodium salt, 3HB-K: potassium salt) and oil and fat particles were weighed in the proportions shown in Table 2 below. Each mixture thereof was milled for 3 seconds five times in a mill mixer (IJM-M800-W, produced by Iris Ohyama Inc.). 1 g of each of the 3HB-containing compositions obtained in the Examples and Comparative Examples was weighed in petri dishes and left uncovered in a room adjusted to 25° C. for 1 week. The appearance and weight change of each composition was then evaluated. As comparative examples, combinations of commonly used silicon dioxide or calcium silicate and fat and/or oil were evaluated. […] The evaluation was made according to the following criteria.
o: High fluidity and silky smoothness. Δ: Slightly moist but highly fluid powder. x: Agglomeration or deliquescence occurred.

| Appearance immediately after milling | Appearance after 1 week | Appearance after 1 day | SMILES |
| --- | --- | --- | --- |
| ∘ | x | x | CC(O)CC(=O)[O-].[Na+] (stereo not drawn) [Comp. Ex. 3] |
| Δ | x (Partial | x (Partial | CC(O)CC(=O)O (stereo not drawn) [Comp. Ex. 1, 3-Hydroxybutyric acid] |
| Δ | x | x | CC(O)CC(=O)[O-].[K+] (stereo not drawn) [Comp. Ex. 2] |
